For data set [1] the following is noted: known drug, background; cited from earlier work.
For data set [2] the following is noted: known drug, background; cited from earlier work. The source holds these as a separate data set.
For data set [3] the following is noted: known drug, background; cited from earlier work. The source holds these as a separate data set.
A further data set in a line: logP. It is filed as physicochemical.
The next data set can be described thus: logD (pH7.4). The class given is physicochemical.
Another data set in a line: moisture sensitivity. It is filed as physicochemical.
A further data set in a line: aqueous solubility. The class given is physicochemical.
Another data set in a line: pKa. The class given is physicochemical.

Where two headings read alike, the source gives them in different places. Bounds are passed on as bounds.

On to `CC(C(=O)O)c1cccc(C(=O)c2ccccc2)c1` (racemic) [Ketoprofen, (RS)-2-(3-benzoylphenyl)propanoic acid], for which the logP entry in data set [1] is listed as “about 0.97”. Further, the pKa entry in data set [2] was “about 5.94”. Also, in data set [3], the “logD (pH7.4)” value was “about 1.34”.
On to `CNc1cc2[nH]c(=O)n(-c3ccc(NC(=O)NS(=O)(=O)c4ccc(Cl)s4)cc3)c(=O)c2cc1F.[K]` [Compound 1, [4-(6-fluoro-7-methylamino-2,4-dioxo-1,4-dihydro-2H-quinazolin-3-yl)-phenyl]-5-chloro-thiophen-2-yl-sulfonylurea potassium salt], for which the logP result in “logP” is on record as “about 2.5”. Also, the “logD (pH7.4)” value in the data set “logD (pH7.4)” is given as “about −1.6”. The moisture sensitivity result in the data set “moisture sensitivity” was “moisture sensitive”. Also, in “aqueous solubility” (at about 37° C.), the aqueous solubility is below 0.1 mg/mL. Besides, in “aqueous solubility” (free acid form, pH 1.0-7.4), the “aqueous solubility of the free acid form” value was below 0.1 mg/mL. Moreover, the pKa result in the data set “pKa” is on record as “about 3.3”.
With `COc1ccc2c(c1)c(CC(=O)O)c(C)n2C(=O)c1ccc(Cl)cc1` [Indomethacin], the logP result in data set [1] is on record as “about 3.8”. Moreover, the “logD (pH7.4)” value in data set [3] is reported as “about 0.30”.

The record behind these values is patent US20130172374A1, “SOLID COMPOSITION FOR CONTROLLED RELEASE OF IONIZABLE ACTIVE AGENTS WITH POOR AQUEOUS SOLUBILITY AT LOW PH AND METHODS OF USE THEREOF” (Portola Pharmaceuticals, Inc., priority 2008, published 2013).
